In EPA's ToxValDB 9.5 (doi:10.2903/j.efsa.2015.3936):

Columns and labels:
[1] = tested on: Anas platyrhynchos
[2] = tested on: Apis mellifera; conditions: acute, mortality
[3] = tested on: Daphnia magna; conditions: chronic/long-term; duration: 21 days; reproduction
[4] = tested on: Folsomia candida; conditions: chronic/long-term; duration: 28 days
[5] = tested on: Oncorhynchus mykiss; conditions: chronic/long-term; duration: 21 days; growth
[6] = tested on: Oryctolagus sp.; conditions: developmental; development
[7] = tested on: Rattus norvegicus; conditions: for NOAEL: chronic
[8] = tested on: Tagia sp.
[9] = tested on: Aphidius rhopalosiphi; assay: LR50; higher = less toxic; conditions: other; mortality
[10] = tested on: Typhlodromus pyri; assay: LR50; higher = less toxic; conditions: other; mortality

COC(=O)c1ccccc1S(=O)(=O)NC(=O)Nc1nc(C)nc(OC)n1 [Metsulfuron-methyl]
LD50 ([1]; acute, oral, unspecified): > 2510 mg/kg-day
NOAEL ([1]; reproductive): 100 mg/kg-day
LC50 ([1]; short-term, oral, feed): > 1280 mg/kg-day
LD50 ([2]; dermal): > 50 µg/piece
LD50 ([2]; oral, unspecified): > 44.3 µg/piece
NOEC [3]: 3.13 mg/L
NOEC [4]: ≥ 250 mg/kg
NOEC [5]: 68 mg/L
NOAEL [6]: 25 mg/kg-day
LD50 ([7]; acute, oral, mortality): > 5000 mg/kg-day
NOAEL [7]: 25 mg/kg-day
NOAEL ([7]; duration: 2 years, body weight): 22.4 mg/kg-day
LC50 ([8]; acute, duration: 14 days, mortality): > 1000 mg/kg
NOEC ([8]; chronic/long-term, duration: 56 days): 0.83 mg/kg
LR50 [9]: > 8 g/ha
LR50 [10]: > 8 g/ha
